We go through six compounds from patent US5498624A, “Selected pyrazolyl derivatives” (Monsanto Company, priority 1995, dated 1996).

Holding throughout (assay type): in vivo
In test [1] the test system is Septoria nodorum. As to the kind of experiment: Wheat Glume Blotch Foliar Assay, protectant (WGB Prot). The following applies: application two days pre-inoculation. How it is done: A) Host Propagation--Winter wheat plants, cv. Caldwell, are grown in 5.7 cm^2 pots, three per pot, and maintained in a growth chamber set at 20° C., 80% RH with a 12 hour photoperiod.
B) Compound Preparation--A 1.0% stock solution of each of the compounds of the present invention is first prepared utilizing an appropriate solvent such as acetone, water or DMSO. This stock is then used to prepare the final spray solution which contains the compound at the desired dosage, eg 100 ppm and 20 ppm, acetone at 20% v/v, Tween®20 at .05% w/v, and water at about 80%. Commercial standard used is tebuconazole at equivalent rates.
C) Compound Application, Seedlings are sprayed at the two-leaf stage (GS 12) using a DeVilbiss Model 152 hand operated sprayer set at 15-20 psi. Six ml of the test solution per treatment are applied to three pots. In the protectant assay (EXAMPLE 8), the compound application is made two days pre-inoculation. In the curative assay (EXAMPLE 9), the compound is applied during a brief interruption of the disease incubation period two days post-inoculation.
D) Pathogen Production/Inoculation--The wheat glume blotch fungus, Septoria nodorum, is maintained in the pycnidial state on yeast malt agar (YMA) and transferred weekly by streaking a suspension of conidia obtained from a ten to twelve day old sporulating culture onto fresh YMA plates. The plates are incubated at 20° C. with a 12 hour photoperiod.
Test inoculum is prepared by flooding seven day old culture plates with deionized water amended with Tween®20 (0.1% v/v) and gently scraping the pycnidia to release the extruding masses of conidia. The resulting spore suspension is filtered through two layers of cheese cloth and adjusted to 4×10^6 spores/ml utilizing the Tween®20 solution.
Forty-eight hours after the compound application and prior to inoculation, the test plants are preconditioned for at least one hour in a dark growth chamber set at 20° C. and 100% RH. After the preconditioning period is over, the conidial suspension is applied to run-off using a DiVilbiss hand operated sprayer. The plants are then returned to the preconditioning chamber and incubated at the same settings for 96 hours. Light is supplied to the plants during the last twelve hours of incubation. At the end of the 96 hour period, the plants are returned to the environmental conditions under which they were grown.
E) Test Evaluation--Eight to ten days after removal from the high humidity chamber, or twelve to fourteen days after inoculation, treatments are evaluated by visually estimating the percentage of the leaf area (on the first leaf) covered with lesions. Three ratings are made on each pot which constitutes a replicate. Each replicate then receives a numerical mean by averaging the three values. Percent disease, as well as percent control values are calculated. The percent control values obtained from these assays for the compounds of the present invention are as set out in the Table below.

The subject of test [2] is Pseudocercosporella herpotrichoides var. tritici. Briefly: Wheat True Eyespot Foliar Protectant Treatment (WES Prot). Here is the method:
A) Pathogen/Inoculum Production--Follows as per Example 4.
B) Host Propagation--Wheat seedlings, cv. Hart, are grown to the third leaf stage in a commercial soil preparation, "Metro Mix 200", amended with 100 gm/ft^3 slow release "Osmocote 14-14-1438 . A sufficient number of seeds are planted per pot (5 cm in diameter) in order to insure the production of 5 vigorous seedlings per pot. The plants are maintained in a growth chamber set at 21° C., 80% RH with a 12 hour photoperiod. Light intensity is set at 300 me/m^2 /sec.
C) Test Compound Preparation
1) Experimental compounds--Follows as per Example 1.
2) Controls and Standards--The commercial fungicide, prochloraz, applied at 20 and 5 ppm, is used as the standard for wheat eyespot control. Control treatments are sprayed only with the formulation solution.
D) Compound Application--Wheat plants are sprayed at the three leaf stage. The solution is foliarly applied to the basal stem area of the wheat using a Devilbiss Model 152 hand sprayer. The treated wheat is allowed to air dry at room temperature before being returned to a growth chamber. The growth chamber is set at 15° C., 85% RH and a 12 hour photoperiod. Light intensity is maintained at 300 me/m^2 /sec.
E) Inoculation/Incubation - The treated wheat plants are inoculated 24 hours after chemical treatment. Inoculation is done by spraying a 3×10^5 spores/ml suspension at the basal stem area of each plant. Approximately 1 ml of spore suspension is applied to each plant. Following inoculation, the basal stem area of the plants are covered with a 2-3 cm thick layer of fine vermiculite. The vermiculite is watered lightly and the plants returned to the growth room. The inoculated plants remain in the growth chamber for 4 weeks after which time they are evaluated for disease control.
F) Evaluation--Treatments are evaluated four weeks after inoculation. Disease assessment is based on the percent girdling of the stem base caused by an eyespot lesion. Five plants are rated per replicate. Phytotoxicity and growth effects are also noted at this time.
G) Data--All replicate data is recorded as a percent disease value. Treatment means are calculated and percent disease control is determined by the formula: (control mean--treatment mean)*100/control mean. The inoculated control treatment mean is used for this calculation. The percent protection values for the compounds of the present invention are as set out in the Table below.

For test [3], the system named is Erysiphe graminis f. sp. tritici. As to the kind of experiment: Wheat Powdery Mildew Foliar Assay (WPM Prot). Here is the method:
A) Pathogen/Inoculum Production--Leaf material infected with the wheat powdery mildew fungus, Erysiphe graminis f. sp. tritici, is maintained continuously on wheat seedlings, cv. Caldewell.
(B) Host Propagation, (C) Compound Preparation and (D) Compound Application follow as per Example 1.
(E) Inoculation/Incubation--Inoculation of the test plants takes place 24 hours after compound application. Inoculation is accomplished by gently shaking plants previously infected with the Erysiphe graminis f. sp. tritici fungus over the test plants. This process liberates a cloud of spores which effectively and uniformly fall onto the test plants. After inoculation the plants are returned to the environmental conditions under which they were grown.
(F) Evaluation and (G) Data follow as per Example 1. The percent protection values for the compounds of the present invention are as set out in the Table below.

Setting [4] is: 100 ppm foliar protectant, * = averaged value.
The mark [5] stands for this setting: 500 ppm foliar protectant, four weeks after inoculation.
The mark [6] stands for this setting: 20 ppm foliar protectant, * = averaged value.

Consider `Cn1cc(C(=O)Nc2ccccc2[C@@H]2CCC[C@@H](C(F)(F)F)C2)c(C(F)F)n1` (relative stereo) [Number 6], for which the “WGB Prot percent control” value in test [1] (20 ppm, * = averaged value) is on record as 70%; in test [1] (100 ppm, * = averaged value) it was 86%; in test [1] (500 ppm, wheat) it was 89%. In addition, the “WES Prot percent disease control” value was determined as 90% in test [2] (setting [4]) and 100% in test [2] (setting [5]). In test [3] (500 ppm foliar protectant), the “WPM Prot percent disease control” value is given as 98%.
`C[C@H]1CCC[C@H](c2ccccc2NC(=O)c2cn(C)nc2C(F)F)C1` (relative stereo) [Number 3, 1H-pyrazole-4-carboxamide, 3-(difluoromethyl)-1-methyl-N-[2-(3-methylcyclohexyl)phenyl]-, trans-]: the “WGB Prot percent control” value in test [1] (20 ppm, * = averaged value) was 79%; in test [1] (100 ppm, * = averaged value) it was 90%. Besides, the “WES Prot percent disease control” value in test [2] (setting [6]) is recorded as 01%; in test [2] (setting [4]), 95%. Also, the “WPM Prot percent disease control” value in test [3] (setting [6]) was found to be 77%; in test [3] (setting [4]) it was 100%.
In the case of `CC[C@H]1CC[C@@H](c2ccccc2NC(=O)c2cn(C)nc2C(F)F)CC1` [Number 1, 1H-pyrazole-4-carboxamide, 3-(difluoromethyl)-N-[2-(4-ethylcyclohexyl)phenyl]-1-methyl-, cis-], the “WES Prot percent disease control” value is reported as 29% in test [2] (setting [6]), 79% in test [2] (setting [4]) and 100% in test [2] (setting [5]).
`C[C@@H]1CCC[C@H](c2ccccc2NC(=O)c2cn(C)nc2C(F)F)C1` (relative stereo) [Number 2, 1H-pyrazole-4-carboxamide, 3-(difluoromethyl)-1-methyl-N-[2-(-3-methylcyclohexyl)phenyl]-, cis-]: the “WGB Prot percent control” value in test [1] (20 ppm, * = averaged value) stood at 56%; in test [1] (100 ppm, * = averaged value), 86%; in test [1] (500 ppm, wheat), 99%. For the same compound, the “WES Prot percent disease control” value in test [2] (setting [6]) came to 12%; in test [2] (setting [4]), 82%. The figures for the “WPM Prot percent disease control” value in test [3] (setting [6]) and in test [3] (setting [4]) were 44% and 65%, respectively.
For `Cn1cc(C(=O)Nc2ccccc2C2CCC(C)(C)CC2)c(C(F)F)n1` [Number 5, 1H-pyrazole-4-carboxamide, 3-(difluoromethyl)-N-(2-(4,4-dimethylcyclohexyl)phenyl]-1-methyl-], the “WGB Prot percent control” value was 47% in test [1] (20 ppm, * = averaged value) and 93% in test [1] (100 ppm, * = averaged value). Moreover, the figures for the “WES Prot percent disease control” value in test [2] (setting [6]) and in test [2] (setting [4]) were 59% and 99%, respectively. The “WPM Prot percent disease control” value in test [3] (setting [6]) is reported as 52%; in test [3] (setting [4]), 79%; in test [3] (500 ppm foliar protectant) it was 92%.
`Cn1cc(C(=O)Nc2ccccc2[C@H]2CC[C@H](C)CC2)c(C(F)(F)F)n1` [Number 4, 1H-pyrazole-4-carboxamide, 1-methyl-N-[2-(4-methylcyclohexyl)phenyl]-3-(trifluoromethyl)-, trans-]: the “WGB Prot percent control” value in test [1] (20 ppm, * = averaged value) amounted to 81%; in test [1] (100 ppm, * = averaged value), 97%. Moreover, the entries for the “WES Prot percent disease control” value in test [2] (setting [6]), in test [2] (setting [4]) and in test [2] (setting [5]) were 54%, 98% and 100%, respectively. In addition, the “WPM Prot percent disease control” value is 65% in test [3] (setting [6]), 91% in test [3] (setting [4]) and 100% in test [3] (500 ppm foliar protectant).
